Patent publication US10532082B2, “SOCS1-derived peptide for use in chronic complications of diabetes” (Fundació Hospital Universitari Vall d'Hebron-Institut de …, priority 2014, dated 2020)
Where no end group is shown, it is not given here. [ ]: non-standard residue; d: D form. lysine‑palmitate = lysine-palmitate bound at the N-terminal end; pY = N[C@@H](Cc1ccc(OP(=O)(O)O)cc1)C(=O)O

Tests used:
diabetic mice (db/db) [1] = assay: Retinal apoptosis by TUNEL, topical eye drops; assay type: in vivo
Method: (§1) 8-week old diabetic mice (db/db) received the miS1 peptide in the form of eye drops (5 μL drops in each eye; 10 mg/mL; twice a day for 15 days; n=7 mice). Diabetic mice treated with the non-functional peptide Mut (n=7), treated with vehicle and non-diabetic mice (db/+) were used as controls. The eye drops were directly administered on the upper surface of the cornea of each eye using a micropipette. The weight and glycemia (colorimetric assay) were controlled throughout the study period. On day 15, the drop with the miS1 peptide or vehicle was administered about two hours before autopsy. The animals were euthanized by cervical dislocation and the enucleated eyes were immediately frozen and dorsoventral sections of 8 mm were cut for analyzing retinal morphology and other immunohistochemical analyses.
Glial activation was evaluated by means of GFAP (Glial fibrillar acidic protein) immunofluorescence following the methodology described in other studies (Bogdanov et al. PLoS One. 2014; 9:e97302). The fixed sections were blocked (1% BSA and 10% goat serum in PBS, 2 hours at RT) and incubated with anti-GFAP antibodies (dilution 1:500, 16 hours at 4° C.) followed by a secondary antibody (Alexa 488-conjugated goat anti-rabbit, dilution 1:200). […] The images of diabetic and control samples were taken with identical parameters and the topographic distribution of the GFAP labelling was analyzed in a scale of 0 to 5 (Anderson et al. Clin Ophthalmol 2008; 2(4):801-16). […] Apoptosis was determined by means of TUNEL (Terminal Transferase dUTP Nick-EndLabeling; fluorescence kit) immunohistochemistry using the previously described method (Bogdanov et al. PLoS One. 2014; 9:e97302) and subsequent quantification under a fluorescence microscope. […] The apoptotic cells were identified using green fluorescence [[…] goat-anti-rabbit (Invitrogen) (dilution 1:200 prepared in PBS)]. An excitation wavelength in the interval of 450-565 nm (e.g., 488 nm) was used for evaluation using fluorescence microscopy and the interval of 515-565 nm (green) was used for detection. […]

diabetic mice (db/db) [2] = assay: Retinal glutamate metabolism (GLAST immunofluorescence, glutamate by UPLC); assay type: in vivo; conditions: eye drops 15 days
Method: as §1, with “The animals were euthanized by cervical dislocation and the enucleated eyes were immediately frozen and dorsoventral sections of 8 mm were cut for analyzing retinal morphology and other immunohistochemical analyses.” left out
The glutamate metabolism was evaluated in order to investigate the mechanisms through which the miS1 peptide produces neuroprotection. The glutamate concentration was determined by means of ultra-high performance liquid chromatography (UPLC) (Acquity-UPLC, Waters) MassTrak amino acid system). The GLAST (Glutamate/Aspartate transporter) was evaluated by means of immunofluorescence.
The paraffin sections were deparaffinized in xylene and rehydrated in a gradual series of ethanol. […] The GLAST immunofluorescence was quantified by means of laser confocal microscopy (Olympus FluoView™ FV1000 confocal microscope, Hamburg, Germany) using the ImageJ software.

diabetic mice (db/db) [3] = assay: Retinal IL-1β mRNA expression by RT-PCR; assay type: in vivo; conditions: eye drops 15 days, retina mRNA RT-PCR
Method: as §1
The expression of IL-1β, TNF-α and IL-6 was evaluated. The total RNA was extracted with RNeasy Mini Kit with DNAse digestion (QIAGEN, distributed by IZASA, Barcelona, Spain) according to manufacturer's instructions. The RNA (1 μg) was used for reverse transcription with random hexanucleotide primers and Applied Biosystems reagents (Applied Biosystems, Madrid, Spain) in a reaction volume of 20 μl. […] The ΔΔCt method was used for obtaining the relative quantification (RQ).

STAT1 = STAT1 activation in cytokine-stimulated macrophages (Western blot); assay type: cell-based, murine; conditions: pre-incubation 50-150 ug/mL (Mut 150 ug/mL), IFNγ and IL-6 stimulation
Method: (§2) RAW264.7 macrophages and vascular smooth muscle cells (VSMC) cultured in a medium with 10% fetal bovine serum were used. The cells were synchronized (24 hours without serum), pre-incubated for 90 minutes with different peptide concentrations (miS1 or the control thereof, 50-150 μg/mL) and stimulated with cytokines (IFNγ […]). STAT activation was analyzed by means of Western blot for phosphorylated STAT1/STAT3 isoforms. JAK/STAT pathway-dependent chemokine (CCL2) expression was determined by means of ELISA. Cell viability was analyzed by MTT colorimetric assay and macrophage migration was analyzed by chemotaxis assay.

STAT3 = STAT3 activation in cytokine-stimulated VSMC; assay type: cell-based, mouse; conditions: IFNγ and IL-6 stimulation, immunofluorescence images
[4] = test system: vascular smooth muscle cells (VSMC); assay: Cytokine-induced CCL2 production in VSMC (ELISA); assay type: cell-based, mouse; conditions: pre-incubation with peptide, IFNγ and IL-6
Method: as §2

[5] = eye drops 50 μg in 5 μL/eye twice a day, 15 days

For “miS1: SEQ ID NO 1 DTHFRTFRSHSDYRRI, kinase inhibitory region of murine SOCS1, bound to lysine-palmitate at the N-terminal end, tyrosine phosphorylated ({lysine‑palmitate}-DTHFRTFRSHSD[pY]RRI)”, the “apoptosis rate (TUNEL) vs diabetic mice treated with vehicle” value (diabetic mice (db/db) [1]; [5]) was “significantly lower apoptosis rate”, the “percentage of apoptotic cells vs non-diabetic mice” value (diabetic mice (db/db) [1]; [5]) was “No differences” and the reduction of apoptosis (diabetic mice (db/db) [1]; eye drops 15 days, compared with groups that received Mut peptide or vehicle) was “about 80%”. For the same substance, the intraretinal glutamate levels (diabetic mice (db/db) [2]; UPLC) was “reduced but without reaching statistical significance”, the “GLAST content in retina” value (diabetic mice (db/db) [2]; immunofluorescence) was “downregulation was prevented” and the “IL-1β increase induced by diabetes” value (diabetic mice (db/db) [3]) was “prevented the increase”. The “STAT1 activation (phosphorylation)” value (STAT1) was “reduced STAT1 and STAT3 activation in a dose-dependent manner”, the STAT3 activation (STAT3) was “prevented” and the “reduction of cytokine-induced CCL2 production” value [4] was 30-40%.
